Like-named read-outs stand apart in the source and are kept apart here.
Biological target: guinea pig ileal longitudinal smooth muscle
Assay: Calcium channel antagonist testing: inhibition of muscarinic receptor-mediated Ca2+-dependent contraction (response to CD) of guinea pig ileal longitudinal smooth muscle
Format: cell-based
Conditions: for IC50: 50% inhibition of tonic contraction to CD 5×10^-7 M, compound added 10 min before CD, 37° C., pH 7.4, read-out: Calcium channel antagonist act., inhib. act. on contractile response to CD, ID50; for calcium channel antagonist activity, comparison to Nifedipine (TM): conclusion from Table 7
Method: Male albino guinea pigs (body weight 300-450 g) were sacrificed by decapitation. The intestine was removed above the ileo-caecal junction. Longitudinal smooth muscle segments of 2 cm length were mounted under a resting tension of 300-400 mg. […] The muscles were equilibrated for 1 h with a solution change every 15 min. Two successive control contractions were elicited at 15 min intervals with 5×10^-7 M cis-2-methyl- 4-dimethylaminomethyl-1,3-dioxolane methiodide (CD). The isometric contractions were recorded with a force displacement transducer (FT 03C) on a GRASS physiograph. The means of the two contractile responses was taken as the 100% value for the tonic (slow) component of the response. The muscle was washed with Hepes saline solution and was allowed to re-equilibrate. The calcium antagonist (test compound) was added ten min before the dose-response for CD was determined. The drug-induced inhibition of contraction was expressed as percent of control. The ID50 values were graphically determined from the concentration-response curves.

Compound	IC50 [nM]	calcium channel antagonist activity, comparison to Nifedipine (TM)	IC50 (Cavia porcellus) [nM]
3,5-Dicyano-2,6-dimethyl-4-{3'-[N--methoxycarbonyl-1',2'-(1',6'-)dihydropyridyl]}-1,4-dihydropyridine [Compound D-48]	34000		
3-Isobutyl-5-methyl 2,6-dimethyl-4-{3'-[N--methoxycarbonyl-1',2'-(1',6'-)dihydropyridyl]}-1,4-dihydropyridine-3,5-dicarboxylate [Compound D-43]	31	active calcium channel antagonists, being comparable to Nifedipine (TM)	
3-Isobutyl-5-methyl 2,6-dimethyl-4-{3'-[N--phenoxycarbonyl-1',2'-(1',6'-)dihydropyridyl]}-1,4-dihydropyridine-3,5-dicarboxylate [Compound D-44]	45	active calcium channel antagonists, being comparable to Nifedipine (TM)	
3-Methyl 5-cyano-2,6-dimethyl-4-{3'-[N--methoxycarbonyl-1',2'-(1',6'-)dihydropyridyl]}-1,4-dihydropyridine-3-carboxylate [Compound D-46]	52000		
COC(=O)C1=C(C)NC(C)=C(C(=O)OC)C1c1ccccn1 [Compound D-1, 3,5-dimethyl 2,6-dimethyl-4-(2'-pyridyl)-1,4-dihydropyridine-3,5-dicarboxylate]			2320
COC(=O)C1=C(C)NC(C)=C(C(=O)OC(C)C)C1c1ccccn1 [Compound D-2, 3-Isopropyl-5-methyl 2,6-dimethyl-4-(2'-pyridyl)-1,4-dihydropyridine-3,5-dicarboxylate]		active calcium channel antagonists, being comparable to Nifedipine (TM)	95.6
COC(=O)C1=C(C)NC(C)=C(C(=O)OCC(C)C)C1c1ccccn1 [Compound D-3, 3-Isobutyl-5-methyl 2,6-dimethyl-4-(2'-pyridyl)-1,4-dihydropyridine-3,5-dicarboxylate]		active calcium channel antagonists, being comparable to Nifedipine (TM)	41
COC(=O)C1=C(C)NC(C)=C(C(=O)OCCN(C)C)C1c1ccccn1 [Compound D-4, 3-[2-(N,N--dimethylamino)ethyl]-5-methyl 2,6-dimethyl-4-(2'-pyridyl)-1,4-dihydropyridine-3,5-dicarboxylate]			43600
COC(=O)C1=C(C)NC(C)=C(C(=O)OC)C1c1cccnc1 [Compound D-5, 3,5-Dimethyl 2,6-dimethyl-4-(3'-pyridyl)-1,4-dihydropyridine-3,5-dicarboxylate]			3830
COC(=O)C1=C(C)NC(C)=C(C(=O)OC(C)C)C1c1cccnc1 [Compound D-6, 3-Isopropyl-5-methyl 2,6-dimethyl-4-(3'-pyridyl)-1,4-dihydropyridine-3,5-dicarboxylate]		active calcium channel antagonists, being comparable to Nifedipine (TM)	97
COC(=O)C1=C(C)NC(C)=C(C(=O)OCC(C)C)C1c1cccnc1 [Compound D-7, 3-Isobutyl-5-methyl 2,6-dimethyl-4-(3'-pyridyl)-1,4-dihydropyridine-3,5-dicarboxylate]		active calcium channel antagonists, being comparable to Nifedipine (TM)	56000
COC(=O)C1=C(C)NC(C)=C(C(=O)OCCN(C)C)C1c1cccnc1 [Compound D-8, 3-[2-(N,N--dimethylamino)ethyl]-5-methyl 2,6-dimethyl-4-(3'-pyridyl)-1,4-dihydropyridine-3,5-dicarboxylate]			33400
COC(=O)C1=C(C)NC(C)=C(C(=O)OC)C1c1ccncc1 [Compound D-9, 3,5-Dimethyl 2,6-dimethyl-4-(4'-pyridyl)-1,4-dihydropyridine-3,5-dicarboxylate]			5000
COC(=O)C1=C(C)NC(C)=C(C(=O)OC(C)C)C1c1ccncc1 [Compound D-10, 3-Isopropyl-5-methyl 2,6-dimethyl-4-(4'-pyridyl)-1,4-dihydropyridine-3,5-dicarboxylate]		active calcium channel antagonists, being comparable to Nifedipine (TM)	560
COC(=O)C1=C(C)NC(C)=C(C(=O)OCC(C)C)C1c1ccncc1 [Compound D-11, 3-Isobutyl-5-methyl 2,6-dimethyl-4-(4'-pyridyl)-1,4-dihydropyridine-3,5-dicarboxylate]		active calcium channel antagonists, being comparable to Nifedipine (TM)	220
COC(=O)C1=C(C)NC(C)=C(C(=O)OCCN(C)C)C1c1ccncc1 [Compound D-12, 3-[2-(N,N--dimethylamino)ethyl] -5-methyl 2,6-dimethyl-4-(4'-pyridyl)-1,4-dihydropyridine-3,5-dicarboxylate]			51300
CCOC(=O)C1=C(C)NC(C)=C(C(=O)OCC)C1c1ccccn1 [Compound D-13, 3,5-diethyl 2,6-dimethyl-4-(2'-pyridyl)-1,4-dihydropyridine-3,5-dicarboxylate]			180
CC1=C(C(=O)OC(C)C)C(c2ccccn2)C(C(=O)OC(C)C)=C(C)N1 [Compound D-14, 3,5-Diisopropyl 2,6-dimethyl-4-(2'-pyridyl)-1,4-dihydropyridine-3,5-dicarboxylate]		active calcium channel antagonists, being comparable to Nifedipine (TM)	125
CC1=C(C(=O)OCC(C)C)C(c2ccccn2)C(C(=O)OCC(C)C)=C(C)N1 [Compound D-15, 3,5-Diisobutyl 2,6-dimethyl-4-(2'-pyridyl)-1,4-dihydropyridine-3,5-dicarboxylate]		active calcium channel antagonists, being comparable to Nifedipine (TM)	93.6
CCOC(=O)C1=C(C)NC(C)=C(C(=O)OCC)C1c1cccnc1 [Compound D-17, 3,5-Diethyl 2,6-dimethyl-4-(3'-pyridyl)-1,4-dihydropyridine-3,5-dicarboxylate]		active calcium channel antagonists, being comparable to Nifedipine (TM)	346
CC1=C(C(=O)OC(C)C)C(c2cccnc2)C(C(=O)OC(C)C)=C(C)N1 [Compound D-18]		active calcium channel antagonists, being comparable to Nifedipine (TM)	260
CC1=C(C(=O)OCCN(C)C)C(c2cccnc2)C(C(=O)OCCN(C)C)=C(C)N1 [Compound D-20, 3,5-Bis-[2-(N,N--dimethylamino)ethyl]2,6-dimethyl-4-(3'pyridyl)-1,4-dihydropyridine-3,5-dicarboxylate]			179000
CC1=C(C(=O)OC(C)C)C(c2ccncc2)C(C(=O)OC(C)C)=C(C)N1 [Compound D-22, 3,5-Diisopropyl 2,6-dimethyl-4-(4'-pyridyl)-1,4-dihydropyridine-3,5-dicarboxylate]		active calcium channel antagonists, being comparable to Nifedipine (TM)	231
CC1=C(C(=O)OCC(C)C)C(c2ccncc2)C(C(=O)OCC(C)C)=C(C)N1 [Compound D-23, 3,5-Diisobutyl 2,6-dimethyl-4-(4'-pyridyl)-1,4-dihydropyridine-3,5-dicarboxylate]		active calcium channel antagonists, being comparable to Nifedipine (TM)	580
COC(=O)C1=C(C)NC(C)=C(C#N)C1c1ccncc1 [Compound D-26]			87700
